The values that follow come from US5648354A, “1,2-dithiins having antifungal activity” (Shaman Pharmaceuticals, Inc., priority 1995, dated 1997).

What all share (assay): In vitro antifungal activity (minimum inhibitory concentration)
Common to all, as to assay type: cell-based

Experiment [1] concerns Cryptococcus neoformans ATCC36556. To be noted: read-out: Minimum Inhibitory Concentration (MIC) CN. How it is done:
(§1) The antifungal activities of representative 1,2-dithiin compounds listed below were determined in vitro using three fungal cultures: Candida albicans ATCC10259 (CA), Cryptococcus neoformans ATCC36556 (CN), and Aspergillus fumigatus ATCC13073 (AF).
(§2) The method used to determine in vitro antifungal activity is discussed in McGinnis, M. R., Laboratory Handbook of Medical Mycology, Academic Press, New York, London, p 661 (1980); and Drouget, E.; Dupont, B.; Improvist, L.; Vivian, M. A.; and Tortorano, A. M.; "Disc Agar Diffusion and Microplate Automatized Techniques for In Vitro Evaluation of Antifungal Agents on Yeast and Sporulated Pathogenic Fungi" in In Vitro and In Vivo Evaluation of Antifungal Agents, Eds. lwata, K. and Vanden Bossche, H., Elsevier Science Publishers, New York, Oxford, p. 303 (1986).

In experiment [2] the test system is Aspergillus fumigatus ATCC13073. Conditions: read-out: Minimum Inhibitory Concentration (MIC) AF. How it is done:
as §1, §2

Experiment [3] relates to Candida albicans ATCC10259. Conditions: read-out: Minimum Inhibitory Concentration (MIC) CA. The procedure:
as §1, §2

Values after ≈ are worked out from the molar mass of the structure shown.

Regarding `CC1(C)OCC(COCC2=CC=C(COCC3COC(C)(C)O3)SS2)O1` (stereo not drawn) [3,6-Bis[[(2,2-dimethyl-1,3-dioxolan-4-yl)methyloxy]methyl]-1,2-dithiin], the MIC in experiment [1], in experiment [2] and in experiment [3] was more than 100 µg/mL throughout.

In the case of `O=C(OCC1=CC=C(CO)SS1)c1ccccc1` [3-(Benzoyloxymethyl)-6-(hydroxymethyl)-1,2-dithiin], the MIC in experiment [1] is 3.1 µg/mL (≈ 11.1 µM); in experiment [2], 3.1 µg/mL (≈ 11.1 µM); in experiment [3] it was 6.3 µg/mL (≈ 22.5 µM).

In the case of `OCC1=CC=C(COc2cc(C(F)(F)F)ccc2Cl)SS1` [3-(Hydroxymethyl)-6-[(2-chloro-5-trifluoromethyl-phenyloxy)methyl]-1,2-dithiin], the MIC in experiment [1] is 1.6 µg/mL (≈ 4.51 µM); in experiment [2], 6.3 µg/mL (≈ 17.8 µM); in experiment [3], 1.6 µg/mL (≈ 4.51 µM).

For `OCC1=CC=C(COc2ccccc2F)SS1` [3-(Hydroxymethyl)-6-[(2-fluorophenyloxy)methyl]-1,2-dithiin], the figures for the MIC in experiment [1], in experiment [2] and in experiment [3] were 1.6 µg/mL (≈ 5.92 µM), 3.1 µg/mL (≈ 11.5 µM) and 3.1 µg/mL (≈ 11.5 µM), respectively.

On to `OCC1=CC=C(COc2ccccc2C(F)(F)F)SS1` [3-(Hydroxymethyl)-6-[(2-trifluoromethylphenyloxy)methyl]-1,2-dithiin], for which the MIC in experiment [1] came to 6.3 µg/mL (≈ 19.7 µM); in experiment [2], 50 µg/mL (≈ 156 µM); in experiment [3], 25 µg/mL (≈ 78 µM).

Consider `C#Cc1cccc(OCC2=CC=C(CO)SS2)c1` [3-(Hydroxymethyl)-6-[(3-ethynylphenyloxy)methyl]-1,2-dithiin], for which the values for the MIC in experiment [1], in experiment [2] and in experiment [3] were 1.6 µg/mL (≈ 5.79 µM), 6.3 µg/mL (≈ 22.8 µM) and 1.6 µg/mL (≈ 5.79 µM), respectively.

Consider `OCC1=CC=C(COc2cccc(O)c2)SS1` [3-(Hydroxymethyl)-6-[(3-hydroxyphenyloxy)methyl]-1,2-dithiin], for which the results for the MIC in experiment [1], in experiment [2] and in experiment [3] were 100 µg/mL (≈ 373 µM), more than 100 µg/mL and 50 µg/mL (≈ 186 µM), respectively.

As to `O=c1ccc(O)nn1CC1=CC=C(CO)SS1` [3-(Hydroxymethyl)-6-[(3-hydroxypyridazin-6-one-1-yl)methyl]-1,2-dithiin], the MIC in experiment [1], in experiment [2] and in experiment [3] was more than 100 µg/mL in each case.

As to `OCC1=CC=C(COc2ccc(O)nn2)SS1` [3-(Hydroxymethyl)-6-[(3-hydroxypyridazine-6-oxy)methyl]-1,2-dithiin], the MIC in experiment [1], in experiment [2] and in experiment [3] was more than 100 µg/mL throughout.

Consider `O=c1ccc([N+](=O)[O-])cn1CC1=CC=C(CO)SS1` [3-(Hydroxymethyl)-6-[(5-nitropyrid-2-one-1-yl)methyl]-1,2-dithiin], for which the MIC in experiment [1] was 100 µg/mL (≈ 335 µM); in experiment [2], more than 100 µg/mL; in experiment [3], more than 100 µg/mL.

For the compound `OCC1=CC=C(COc2ccccc2)SS1` [3-(Hydroxymethyl)-6-[(phenyloxy)methyl]-1,2-dithiin], the MIC came to 12.5 µg/mL (≈ 49.5 µM) in experiment [1], 25 µg/mL (≈ 99.1 µM) in experiment [2] and 25 µg/mL (≈ 99.1 µM) in experiment [3].

For `O=c1ccccn1CC1=CC=C(CO)SS1` [3-(Hydroxymethyl)-6-[(pyrid-2-one-1-yl)methyl]-1,2-dithiin], the MIC in experiment [1] is 12.5 µg/mL (≈ 49.3 µM); in experiment [2], more than 100 µg/mL; in experiment [3], more than 100 µg/mL.

As to `OCC1=CC=C(COc2ccccn2)SS1` [3-(Hydroxymethyl)-6-[(pyridyl-2-oxy)methyl]-1,2-dithiin], the MIC in experiment [1], in experiment [2] and in experiment [3] was 3.1 µg/mL (≈ 12.2 µM) in each case.

In the case of `OCC1=CC=C(COc2cccnc2)SS1` [3-(Hydroxymethyl)-6-[(pyridyl-3-oxy)methyl]-1,2-dithiin], the MIC in experiment [1] worked out at 1.6 µg/mL (≈ 6.32 µM); in experiment [2], 3.1 µg/mL (≈ 12.2 µM); in experiment [3], 3.1 µg/mL (≈ 12.2 µM).

`CN(C)c1cccc(OCC2=CC=C(CO)SS2)c1` [3-(Hydroxymethyl)-6-[[3-(N,N-dimethylamino)phenyloxy]methyl]-1,2-dithiin]: the MIC in experiment [1] is 50 µg/mL (≈ 169 µM); in experiment [2] it was 100 µg/mL (≈ 338 µM); in experiment [3], more than 50 µg/mL.

For `CC1(C)OCC(COCC2=CC=C(CO)SS2)O1` (stereo not drawn) [3-(Hydroxymethyl)-6-[[(2,2-dimethyl-1,3-dioxolan-4-yl)methyloxy]methyl]-1,2-dithiin], the MIC in experiment [1], in experiment [2] and in experiment [3] was more than 100 µg/mL each time.

Regarding `OCC1=CC=C(COCC(O)CO)SS1` (stereo not drawn) [3-(Hydroxymethyl)-6-[methyloxy(2,3-dihydroxypropane-1-yl)]-1,2-dithiin], the MIC in experiment [1], in experiment [2] and in experiment [3] was more than 100 µg/mL each time.

`OCC1=CC=C(COc2nc3ccccc3nc2O)SS1` [3-(Hydroxymethyl)-6-[methyloxy[3-hydroxyquinoxalin-2-yl]]-1,2-dithiin]: the values for the MIC in experiment [1], in experiment [2] and in experiment [3] were 25 µg/mL (≈ 78 µM), 100 µg/mL (≈ 312 µM) and 50 µg/mL (≈ 156 µM), respectively.

For the compound `COC(=O)c1ccccc1OCC1=CC=C(CO)SS1` [3-(Hydroxymethyl)-6-[methyloxy[methyl benzoate-2-yl]]-1,2-dithiin], the MIC was 6.3 µg/mL (≈ 20.3 µM) in experiment [1], 12.5 µg/mL (≈ 40.3 µM) in experiment [2] and 6.3 µg/mL (≈ 20.3 µM) in experiment [3].

With `COC(=O)c1cccc(OCC2=CC=C(CO)SS2)c1` [3-(Hydroxymethyl)-6-[methyloxy[methyl benzoate-3-yl]]-1,2-dithiin], the MIC in experiment [1] stood at 6.3 µg/mL (≈ 20.3 µM); in experiment [2] it was 25 µg/mL (≈ 80.5 µM); in experiment [3], 3.1 µg/mL (≈ 9.99 µM).

Turning to `OCC1=CC=C(CSc2nnnn2-c2ccc(O)cc2)SS1` [3-(Hydroxymethyl)-6-[methylthio-[1-(4-hydroxyphenyl)tetrazol-5-yl]]-1,2-dithiin], the MIC in experiment [1] turned out to be 6.3 µg/mL (≈ 17.9 µM); in experiment [2], 12.5 µg/mL (≈ 35.5 µM); in experiment [3], 25 µg/mL (≈ 70.9 µM).

On to `O=[N+]([O-])c1ccc(OCC2=CC=C(CO)SS2)nc1` [3-(hydroxymethyl)-6-[(5-nitropyridyl-2-oxy)methyl]-1,2-dithiin], for which the values for the MIC in experiment [1], in experiment [2] and in experiment [3] were 0.1 µg/mL (≈ 0.335 µM), 0.4 µg/mL (≈ 1.34 µM) and 0.2 µg/mL (≈ 0.67 µM), respectively.

For the compound `OCC1=CC=C(COc2ccc(-n3ccnc3)cc2)SS1` [3-(hydroxymethyl)-6-[[4-(imidazol-1-yl)phenyloxy]methyl]-1,2-dithiin], the MIC in experiment [1] was found to be 100 µg/mL (≈ 314 µM); in experiment [2], 100 µg/mL (≈ 314 µM); in experiment [3], 12.5 µg/mL (≈ 39.3 µM).

In the case of `COC(=O)c1ccc(OCC2=CC=C(CO)SS2)cc1` [3-(hydroxymethyl)-6-[methyloxy[methyl benzoate-4-yl]]-1,2-dithiin], the values for the MIC in experiment [1], in experiment [2] and in experiment [3] were 3.1 µg/mL (≈ 9.99 µM), 12.5 µg/mL (≈ 40.3 µM) and 3.1 µg/mL (≈ 9.99 µM), respectively.

Consider `CC1(C)OCC(COCC2=CC=C(COCC(O)CO)SS2)O1` (stereo not drawn) [3-[[(2,2-Dimethyl-1,3-dioxolan-4-yl)methyloxy]methyl]-6-[methyloxy(2,3-dihydroxypropane-1-yl)]-1,2-dithiin], for which the MIC in experiment [1], in experiment [2] and in experiment [3] was more than 100 µg/mL throughout.
